In patent publication US20250176599A1, “FLAVOR COMPOSITION AND FOOD AND BEVERAGE” (TAKASAGO INTERNATIONAL CORPORATION, priority 2021, published 2025):

Experiments:
[1] = Sensory evaluation of aqueous solution I containing (E)-2-nonenal 1 ppb: off-flavor intensity and masking component intensity; conditions: average panel score
Outline: (§1)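 Eight trained panelists tasted water solutions of the off-flavor compounds spiked with nootkatone. Masking-agent taste was scored absolutely from 0 (not sensed) to 4 (strong). Off-flavor was scored relatively, anchored at 4 for the solution without masker and 0 for ion-exchanged water.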

[2] = Sensory evaluation of aqueous solution II containing (E)-2-octenal 10 ppb: off-flavor intensity and masking component intensity; conditions: average panel score
Outline: as §1

[3] = Sensory evaluation of aqueous solution III containing 1-octen-3-one 1 ppb: off-flavor intensity and masking component intensity; conditions: average panel score
Outline: as §1

[4] = Sensory evaluation of aqueous solution IV containing 1,5-octadien-3-one 100 ppt: off-flavor intensity and masking component intensity; conditions: aqueous solution IV, average panel score
Outline: as §1

[5] = Sensory evaluation of aqueous solution V containing 1-octen-3-ol 10 ppb: off-flavor intensity and masking component intensity; conditions: average panel score
Outline: as §1

[6] = Sensory evaluation of aqueous solution VI containing 1,5-octadien-3-ol 10 ppb: off-flavor intensity and masking component intensity; conditions: aqueous solution VI, average panel score
Outline: as §1

[7] = Overall conclusion of the sensory evaluation across aqueous solutions I to VI
Outline: as §1

CC(C)C=C(C=O)c1ccccc1 [4-methyl-2-phenyl-2-pentenal]
Masking Component Intensity ([1]; 1 ppb added): 0.5 | Off-Flavor Intensity ([1]; 1 ppb added): 2.8 | Masking Component Intensity ([1]; 1 ppm added): 1.9 | Off-Flavor Intensity ([1]; 1 ppm added): 1.6 | Masking Component Intensity ([1]; 5 ppm added): 2.9 | Off-Flavor Intensity ([1]; 5 ppm added): 1.1 | Masking Component Intensity ([1]; 10 ppb added): 0.9 | Off-Flavor Intensity ([1]; 10 ppb added): 2.3 | Masking Component Intensity ([1]; 10 ppm added): 3.8 | Off-Flavor Intensity ([1]; 10 ppm added): 0.5 | Masking Component Intensity ([1]; 50 ppm added): 4.0 | Off-Flavor Intensity ([1]; 50 ppm added): 0.3 | Masking Component Intensity ([1]; 100 ppb added): 1.4 | Off-Flavor Intensity ([1]; 100 ppb added): 1.8 | Masking Component Intensity ([1]; 100 ppt added): 0.4 | Off-Flavor Intensity ([1]; 100 ppt added): 3.3 | Masking Component Intensity ([2]; 1 ppb added): 0.5 | Off-Flavor Intensity ([2]; 1 ppb added): 2.8 | Masking Component Intensity ([2]; 1 ppm added): 2.1 | Off-Flavor Intensity ([2]; 1 ppm added): 1.6 | Masking Component Intensity ([2]; 5 ppm added): 2.6 | Off-Flavor Intensity ([2]; 5 ppm added): 1.4 | Masking Component Intensity ([2]; 10 ppb added): 1.1 | Off-Flavor Intensity ([2]; 10 ppb added): 2.5 | Masking Component Intensity ([2]; 10 ppm added): 3.4 | Off-Flavor Intensity ([2]; 10 ppm added): 1.0 | Masking Component Intensity ([2]; 50 ppm added): 3.9 | Off-Flavor Intensity ([2]; 50 ppm added): 0.6 | Masking Component Intensity ([2]; 100 ppb added): 1.6 | Off-Flavor Intensity ([2]; 100 ppb added): 2.0 | Masking Component Intensity ([2]; 100 ppt added): 0.4 | Off-Flavor Intensity ([2]; 100 ppt added): 3.0 | Masking Component Intensity ([3]; 1 ppb added): 0.9 | Off-Flavor Intensity ([3]; 1 ppb added): 3.4 | Masking Component Intensity ([3]; 1 ppm added): 2.5 | Off-Flavor Intensity ([3]; 1 ppm added): 2.1 | Masking Component Intensity ([3]; 5 ppm added): 3.0 | Off-Flavor Intensity ([3]; 5 ppm added): 1.8 | Masking Component Intensity ([3]; 10 ppb added): 1.4 | Off-Flavor Intensity ([3]; 10 ppb added): 3.1 | Masking Component Intensity ([3]; 10 ppm added): 3.5 | Off-Flavor Intensity ([3]; 10 ppm added): 1.6 | Masking Component Intensity ([3]; 50 ppm added): 3.8 | Off-Flavor Intensity ([3]; 50 ppm added): 1.3 | Masking Component Intensity ([3]; 100 ppb added): 1.8 | Off-Flavor Intensity ([3]; 100 ppb added): 2.6 | Masking Component Intensity ([3]; 100 ppt added): 0.5 | Off-Flavor Intensity ([3]; 100 ppt added): 3.6 | Masking Component Intensity ([4]; 1 ppb added): 0.4 | Off-Flavor Intensity ([4]; 1 ppb added): 3.6 | Masking Component Intensity ([4]; 1 ppm added): 1.9 | Off-Flavor Intensity ([4]; 1 ppm added): 2.3 | Masking Component Intensity ([4]; 5 ppm added): 2.3 | Off-Flavor Intensity ([4]; 5 ppm added): 2.0 | Masking Component Intensity ([4]; 10 ppb added): 1.0 | Off-Flavor Intensity ([4]; 10 ppb added): 3.0 | Masking Component Intensity ([4]; 10 ppm added): 3.0 | Off-Flavor Intensity ([4]; 10 ppm added): 1.4 | Masking Component Intensity ([4]; 50 ppm added): 3.6 | Off-Flavor Intensity ([4]; 50 ppm added): 1.0 | Masking Component Intensity ([4]; 100 ppb added): 1.4 | Off-Flavor Intensity ([4]; 100 ppb added): 2.6 | Masking Component Intensity ([4]; 100 ppt added): 0.3 | Off-Flavor Intensity ([4]; 100 ppt added): 3.6 | Masking Component Intensity ([5]; 1 ppb added): 0.8 | Off-Flavor Intensity ([5]; 1 ppb added): 2.3 | Masking Component Intensity ([5]; 1 ppm added): 2.4 | Off-Flavor Intensity ([5]; 1 ppm added): 1.1 | Masking Component Intensity ([5]; 5 ppm added): 2.8 | Off-Flavor Intensity ([5]; 5 ppm added): 0.8 | Masking Component Intensity ([5]; 10 ppb added): 1.4 | Off-Flavor Intensity ([5]; 10 ppb added): 1.8 | Masking Component Intensity ([5]; 10 ppm added): 3.5 | Off-Flavor Intensity ([5]; 10 ppm added): 0.6 | Masking Component Intensity ([5]; 50 ppm added): 3.9 | Off-Flavor Intensity ([5]; 50 ppm added): 0.5 | Masking Component Intensity ([5]; 100 ppb added): 1.6 | Off-Flavor Intensity ([5]; 100 ppb added): 1.6 | Masking Component Intensity ([5]; 100 ppt added): 0.6 | Off-Flavor Intensity ([5]; 100 ppt added): 2.8 | Masking Component Intensity ([6]; 1 ppb added): 0.3 | Off-Flavor Intensity ([6]; 1 ppb added): 1.8 | Masking Component Intensity ([6]; 1 ppm added): 1.8 | Off-Flavor Intensity ([6]; 1 ppm added): 0.9 | Masking Component Intensity ([6]; 5 ppm added): 2.4 | Off-Flavor Intensity ([6]; 5 ppm added): 0.4 | Masking Component Intensity ([6]; 10 ppb added): 0.8 | Off-Flavor Intensity ([6]; 10 ppb added): 1.4 | Masking Component Intensity ([6]; 10 ppm added): 3.1 | Off-Flavor Intensity ([6]; 10 ppm added): 0.4 | Masking Component Intensity ([6]; 50 ppm added): 3.5 | Off-Flavor Intensity ([6]; 50 ppm added): 0.1 | Masking Component Intensity ([6]; 100 ppb added): 1.3 | Off-Flavor Intensity ([6]; 100 ppb added): 1.0 | Masking Component Intensity ([6]; 100 ppt added): 0.0 | Off-Flavor Intensity ([6]; 100 ppt added): 2.1 | concentration that masks the off-flavor and does not affect the flavor of the food and/or beverage itself, lower limit [7]: ≥ 100 ppt | concentration that masks the off-flavor and does not affect the flavor of the food and/or beverage itself, upper limit [7]: ≤ 10 ppm

C=CC(C)(O)CCC=C(C)CCC=C(C)C (stereo not shown) [nerolidol]
Masking Component Intensity ([1]; 1 ppb added): 0.4 | Off-Flavor Intensity ([1]; 1 ppb added): 2.8 | Masking Component Intensity ([1]; 1 ppm added): 2.0 | Off-Flavor Intensity ([1]; 1 ppm added): 1.6 | Masking Component Intensity ([1]; 5 ppm added): 2.9 | Off-Flavor Intensity ([1]; 5 ppm added): 1.0 | Masking Component Intensity ([1]; 10 ppb added): 0.6 | Off-Flavor Intensity ([1]; 10 ppb added): 2.4 | Masking Component Intensity ([1]; 10 ppm added): 3.8 | Off-Flavor Intensity ([1]; 10 ppm added): 0.8 | Masking Component Intensity ([1]; 10 ppt added): 0.1 | Off-Flavor Intensity ([1]; 10 ppt added): 3.6 | Masking Component Intensity ([1]; 100 ppb added): 1.1 | Off-Flavor Intensity ([1]; 100 ppb added): 2.0 | Masking Component Intensity ([1]; 100 ppt added): 0.3 | Off-Flavor Intensity ([1]; 100 ppt added): 3.3 | Masking Component Intensity ([2]; 1 ppb added): 0.4 | Off-Flavor Intensity ([2]; 1 ppb added): 2.6 | Masking Component Intensity ([2]; 1 ppm added): 2.4 | Off-Flavor Intensity ([2]; 1 ppm added): 1.5 | Masking Component Intensity ([2]; 5 ppm added): 3.4 | Off-Flavor Intensity ([2]; 5 ppm added): 0.8 | Masking Component Intensity ([2]; 10 ppb added): 0.8 | Off-Flavor Intensity ([2]; 10 ppb added): 2.3 | Masking Component Intensity ([2]; 10 ppm added): 3.8 | Off-Flavor Intensity ([2]; 10 ppm added): 0.5 | Masking Component Intensity ([2]; 10 ppt added): 0.0 | Off-Flavor Intensity ([2]; 10 ppt added): 3.4 | Masking Component Intensity ([2]; 100 ppb added): 1.5 | Off-Flavor Intensity ([2]; 100 ppb added): 1.9 | Masking Component Intensity ([2]; 100 ppt added): 0.1 | Off-Flavor Intensity ([2]; 100 ppt added): 3.0 | Masking Component Intensity ([3]; 1 ppb added): 0.4 | Off-Flavor Intensity ([3]; 1 ppb added): 3.0 | Masking Component Intensity ([3]; 1 ppm added): 2.1 | Off-Flavor Intensity ([3]; 1 ppm added): 1.5 | Masking Component Intensity ([3]; 5 ppm added): 3.4 | Off-Flavor Intensity ([3]; 5 ppm added): 0.9 | Masking Component Intensity ([3]; 10 ppb added): 0.8 | Off-Flavor Intensity ([3]; 10 ppb added): 2.5 | Masking Component Intensity ([3]; 10 ppm added): 3.6 | Off-Flavor Intensity ([3]; 10 ppm added): 0.4 | Masking Component Intensity ([3]; 10 ppt added): 0.1 | Off-Flavor Intensity ([3]; 10 ppt added): 3.6 | Masking Component Intensity ([3]; 100 ppb added): 1.5 | Off-Flavor Intensity ([3]; 100 ppb added): 2.0 | Masking Component Intensity ([3]; 100 ppt added): 0.3 | Off-Flavor Intensity ([3]; 100 ppt added): 3.4 | Masking Component Intensity ([4]; 1 ppb added): 0.4 | Off-Flavor Intensity ([4]; 1 ppb added): 3.1 | Masking Component Intensity ([4]; 1 ppm added): 2.0 | Off-Flavor Intensity ([4]; 1 ppm added): 2.3 | Masking Component Intensity ([4]; 5 ppm added): 3.0 | Off-Flavor Intensity ([4]; 5 ppm added): 1.9 | Masking Component Intensity ([4]; 10 ppb added): 0.6 | Off-Flavor Intensity ([4]; 10 ppb added): 3.0 | Masking Component Intensity ([4]; 10 ppm added): 3.6 | Off-Flavor Intensity ([4]; 10 ppm added): 1.4 | Masking Component Intensity ([4]; 10 ppt added): 0.1 | Off-Flavor Intensity ([4]; 10 ppt added): 3.6 | Masking Component Intensity ([4]; 100 ppb added): 1.3 | Off-Flavor Intensity ([4]; 100 ppb added): 2.6 | Masking Component Intensity ([4]; 100 ppt added): 0.1 | Off-Flavor Intensity ([4]; 100 ppt added): 3.4 | Masking Component Intensity ([5]; 1 ppb added): 0.6 | Off-Flavor Intensity ([5]; 1 ppb added): 2.6 | Masking Component Intensity ([5]; 1 ppm added): 2.6 | Off-Flavor Intensity ([5]; 1 ppm added): 1.6 | Masking Component Intensity ([5]; 5 ppm added): 3.5 | Off-Flavor Intensity ([5]; 5 ppm added): 1.0 | Masking Component Intensity ([5]; 10 ppb added): 0.9 | Off-Flavor Intensity ([5]; 10 ppb added): 2.5 | Masking Component Intensity ([5]; 10 ppm added): 3.9 | Off-Flavor Intensity ([5]; 10 ppm added): 0.6 | Masking Component Intensity ([5]; 10 ppt added): 0.1 | Off-Flavor Intensity ([5]; 10 ppt added): 3.6 | Masking Component Intensity ([5]; 100 ppb added): 1.4 | Off-Flavor Intensity ([5]; 100 ppb added): 2.1 | Masking Component Intensity ([5]; 100 ppt added): 0.3 | Off-Flavor Intensity ([5]; 100 ppt added): 3.1 | Masking Component Intensity ([6]; 1 ppb added): 0.3 | Off-Flavor Intensity ([6]; 1 ppb added): 3.1 | Masking Component Intensity ([6]; 1 ppm added): 2.5 | Off-Flavor Intensity ([6]; 1 ppm added): 1.8 | Masking Component Intensity ([6]; 5 ppm added): 3.5 | Off-Flavor Intensity ([6]; 5 ppm added): 1.1 | Masking Component Intensity ([6]; 10 ppb added): 0.8 | Off-Flavor Intensity ([6]; 10 ppb added): 2.4 | Masking Component Intensity ([6]; 10 ppm added): 3.9 | Off-Flavor Intensity ([6]; 10 ppm added): 0.8 | Masking Component Intensity ([6]; 10 ppt added): 0.0 | Off-Flavor Intensity ([6]; 10 ppt added): 3.5 | Masking Component Intensity ([6]; 100 ppb added): 1.3 | Off-Flavor Intensity ([6]; 100 ppb added): 2.1 | Masking Component Intensity ([6]; 100 ppt added): 0.1 | Off-Flavor Intensity ([6]; 100 ppt added): 3.3 | concentration that masks the off-flavor and does not affect the flavor of the food and/or beverage itself, lower limit [7]: ≥ 100 ppt | concentration that masks the off-flavor and does not affect the flavor of the food and/or beverage itself, upper limit [7]: ≤ 5 ppm
